Test results reported in PubChem BioAssay (NCI).
Where “and” joins values, the source holds several entries; their conditions need not be identical. Identical values can stand only once.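 Exposure lasted 48 hours, with cells grown in 96-well plates and compounds tested at five concentrations. Here, GI50 denotes the concentration required for 50% inhibition of growth. TGI is the concentration that stops growth completely.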

Assays:
Assay in all cases: NCI tumour cell line growth inhibition, 48 h
UACC-62 melanoma = test system: UACC-62 melanoma
CCRF-CEM leukemia = test system: CCRF-CEM leukemia
A498 renal = test system: A498 renal
RPMI-8226 leukemia = test system: RPMI-8226 leukemia
MOLT-4 leukemia = test system: MOLT-4 leukemia
A549 NSCLC = test system: A549 NSCLC
ACHN renal = test system: ACHN renal
OVCAR-4 ovarian = test system: OVCAR-4 ovarian
HS 578T breast = test system: HS 578T breast
UACC-257 melanoma = test system: UACC-257 melanoma

Structure (SMILES)	TGI (UACC-62 melanoma) [µM]	TGI (CCRF-CEM leukemia) [µM]	TGI (A498 renal) [µM]	TGI (RPMI-8226 leukemia) [µM]	TGI (MOLT-4 leukemia) [µM]	TGI (A549 NSCLC) [µM]	TGI (ACHN renal) [µM]	TGI (OVCAR-4 ovarian) [µM]	TGI (HS 578T breast) [µM]	TGI (UACC-257 melanoma) [µM]	GI50 (RPMI-8226 leukemia)	GI50 (CCRF-CEM leukemia) [µM]	GI50 (OVCAR-4 ovarian) [µM]	GI50 (UACC-62 melanoma) [µM]	GI50 (A498 renal) [µM]	GI50 (MOLT-4 leukemia) [µM]	GI50 (A549 NSCLC) [µM]	GI50 (ACHN renal) [µM]	GI50 (UACC-257 melanoma) [µM]
Cc1cc2c(c(=O)n1C)SCC2	> 100	> 100	> 100	> 100	> 100	> 100	> 100	> 100	> 100	> 100	–	–	–	–	–	–	–	–	–
CC1(C2CCC3(C)OC3C2)CO1 (configuration not stated)	> 100	> 100	–	> 100	> 100	> 100	> 100	> 100	–	> 100	–	–	–	–	–	–	–	–	–
CCN(CC)c1nc(N(C)C)c2ccccc2n1	56.1	–	–	40.6	30.3	> 100	> 100	> 100	> 100	> 100	–	–	–	–	–	–	–	–	–
Cc1ccc(S(=O)(=O)n2cc(C#N)c(C#N)c2)cc1	33.7	92.1	71.9	–	> 100	78.9	40.7	> 100	61.4	> 100	–	–	–	–	–	–	–	–	–
CN1C(=O)C(O)CC1c1cccc(C(F)(F)F)c1 (configuration not stated)	> 100	> 100	> 100	> 100	> 100	> 100	> 100	> 100	> 100	> 100	–	–	–	–	–	–	–	–	–
CC(C)(C)C1CC[C@H](O)[C@H]([C@H](O)CC2CC(=O)N(c3ccccc3)C(=O)C2)C1 (some centres not stated)	> 100	> 100	> 100	–	> 100	> 100	> 100	> 100	> 100	> 100	–	–	–	–	–	–	–	–	–
COC(=O)c1c(-c2ccc(Cl)cc2)cc2c3ccccc3n(C)c2c1C(=O)OC	> 100	> 100	> 100	–	> 100	> 100	> 100	> 100	> 100	> 100	–	–	–	–	–	–	–	–	–
CCCNc1ncnc2[nH]ncc12	> 100	> 100	> 100	> 100	> 100	> 100	> 100	> 100	> 100	> 100	–	–	–	–	–	–	–	–	–
C#CCC1(C(=O)OCC)C(=O)c2ccccc2N(C)C1=O (configuration not stated)	> 100	> 100	> 100	> 100	> 100	–	> 100	–	–	–	–	–	–	–	–	–	–	–	–
CN(C)C(=S)Oc1ccc2ccc(=O)oc2c1	> 100	–	> 100	> 100	> 100	> 100	> 100	> 100	> 100	> 100	–	–	–	–	–	–	–	–	–
Cc1ccccc1OC(C)C(=O)NN1C(=O)CC(=O)N(c2ccccc2)C1=S (configuration not stated)	> 100	–	> 100	> 100	> 100	> 100	> 100	> 100	> 100	> 100	–	–	–	–	–	–	–	–	–
CCN(CC)c1ccc2cc(-c3nc4ccccc4c(=O)[nH]3)c(=N)oc2c1	> 100	> 100	–	> 100	> 100	> 100	> 100	> 100	> 100	> 100	–	–	–	–	–	–	–	–	–
NCCC1CN(C(=O)OCc2ccccc2)c2ccccc21 (configuration not stated)	33.2	–	> 52.2	46.6	52.1	> 53.6	> 54.6	> 55.8	56.8	37.8	–	–	–	–	–	–	–	–	–
C(/Cc1ccc2c(c1)OCO2)=N\NC1=NCCCN1	> 100	> 100	72.8	> 100	55.2	> 100	> 100	> 100	> 100	> 100	–	–	–	–	–	–	–	–	–
COC(=O)[C@@H]1CN(C(=O)c2ccccc2)C(=O)N1C(=O)OCc1ccccc1	> 100	> 100	> 100	> 100	> 100	> 100	> 100	> 100	> 100	> 100	–	–	–	–	–	–	–	–	–
O=c1cc(NCc2ccncc2)[nH]c(=O)[nH]1	> 100	> 100	> 100	> 100	> 100	> 100	> 100	> 100	> 100	> 100	–	–	–	–	–	–	–	–	–
CCOC(=O)c1cn(C)c(=S)n2c1nc1ccccc12	> 100	> 100	> 100	95.6	> 100	> 100	> 100	> 100	–	> 100	–	–	–	–	–	–	–	–	–
Cc1nc2ccc(Cl)cc2c2c1CCN2c1ccccc1	23.6	23.1	34.3	31.4	28.5	46.6	62.4	> 100	55.7	29.1	–	–	–	–	–	–	–	–	–
NCCOCC(N)C(=O)O (configuration not stated)	> 100	> 100	> 100	> 100	> 100	> 100	> 100	> 100	> 100	> 100	39.1 µM and > 100 µM	–	–	–	–	–	–	–	–
CSc1nc(NC(C)C)c2c(n1)Sc1nc3ccccc3n1C2O (configuration not stated)	–	4.95	–	12.5	14.1	> 100	81.8	> 100	13.4	> 100	–	–	–	–	–	–	–	–	–
CS(=O)(=O)NC12CCC(c3ccccc31)c1ccccc12	> 100	> 100	> 100	> 100	> 100	> 100	> 100	> 100	> 100	–	–	–	–	–	–	–	–	–	–
CCOC(=O)C1(C(F)(F)F)N=C(CC)OC(N2CCOCC2)=N1 (configuration not stated)	> 100	> 100	–	> 100	> 100	> 100	> 100	> 100	> 100	> 100	–	–	–	–	–	–	–	–	–
COC(=O)C1=C(O)C(C(=O)OC)[C@]2(O)[C@H](C(=O)OC)[C@H]1C[C@@H](c1ccc([N+](=O)[O-])cc1)[C@H]2C(=O)OC (some centres not stated)	29.1	67	–	–	81.6	68.1	32.9	> 100	–	> 100	–	–	–	–	–	–	–	–	–
O=[N+]([O-])c1cccnc1-n1cnc2ccccc21	> 100	> 100	> 100	> 100	> 100	> 100	–	> 100	> 100	> 100	–	–	–	–	–	–	–	–	–

Structure (SMILES)	TGI (UACC-62 melanoma) [µM]	TGI (CCRF-CEM leukemia) [µM]	TGI (A498 renal) [µM]	TGI (RPMI-8226 leukemia) [µM]	TGI (MOLT-4 leukemia) [µM]	TGI (A549 NSCLC) [µM]	TGI (ACHN renal) [µM]	TGI (OVCAR-4 ovarian) [µM]	TGI (HS 578T breast) [µM]	TGI (UACC-257 melanoma) [µM]	GI50 (RPMI-8226 leukemia)	GI50 (CCRF-CEM leukemia) [µM]	GI50 (OVCAR-4 ovarian) [µM]	GI50 (UACC-62 melanoma) [µM]	GI50 (A498 renal) [µM]	GI50 (MOLT-4 leukemia) [µM]	GI50 (A549 NSCLC) [µM]	GI50 (ACHN renal) [µM]	GI50 (UACC-257 melanoma) [µM]
O=C1C=CC(=O)c2c(Cl)ccc(O)c21	30.9	> 100	> 100	23.4	23.2	> 100	–	32.5	–	29.8	–	–	–	–	–	–	–	–	–
C=CC1CN2CCC1CC2C(O)c1ccnc2ccccc12 (configuration not stated)	> 100	> 100	–	–	> 100	> 100	> 100	> 100	–	> 100	–	> 100	> 100	–	–	–	–	–	–
CC(=O)/C(=C\c1ccc(Cl)c(Cl)c1)C(=O)C(C)CN(C)C (configuration not stated)	–	0.116	8.16	3.63	6.6	35.7	17.9	–	–	23.7	–	–	–	–	–	–	–	–	–
Cn1c2ccccc2n2c3ncccc3c(=S)c(C#N)c12	> 100	> 100	> 100	> 100	> 100	> 100	> 100	> 100	> 100	–	–	–	–	–	–	–	–	–	–
c1ccc(-c2nnn(CCN3CCCCC3)n2)cc1	> 100	> 100	> 100	> 100	–	> 100	> 100	> 100	> 100	> 100	–	–	–	–	–	–	–	–	–
Cc1nc(-c2cc3cc(Cl)ccc3oc2=O)cc2c1c(=O)oc1ccc(Cl)cc12	> 100	> 100	> 100	> 100	> 100	> 100	> 100	–	> 100	> 100	–	–	–	–	–	–	–	–	–
Cc1[nH]c(=O)[nH]c(=S)c1C(=O)Nc1cccc2cc3ccccc3cc12	> 100	> 100	> 100	> 100	> 100	–	> 100	> 100	> 100	–	–	–	–	–	–	–	–	–	–
Cc1csc(NC(=NCCN2CCOCC2)Nc2nc(C)cs2)n1	> 100	> 100	> 100	> 100	> 100	> 100	–	> 100	–	> 100	–	–	–	–	–	–	–	–	–
COc1ccc2nc3n(c2c1)CCc1cc(OC)c(OC)cc1-3	> 100	> 100	> 100	–	–	> 100	> 100	> 100	> 100	> 100	–	–	–	–	–	–	–	–	–
S=C(NCc1ccccc1)N/N=C/c1ccccn1	25.1	–	> 100	2.33	16.6	> 100	> 56.1	> 100	> 100	> 100	–	–	–	–	–	–	–	–	–
CC(=O)Nc1cc(Nc2cc(=O)[nH]c(=O)[nH]2)ccc1C	–	> 100	> 100	> 100	–	> 100	> 100	> 100	> 100	> 100	–	–	–	–	–	–	–	–	–
NS(=O)(=O)c1ccc(NNc2c3ccccc3nc3c(C(=O)Nc4ccc(S(=O)(=O)Nc5ncccn5)cc4)cccc23)cc1	> 25	> 25	–	> 25	> 25	> 25	> 25	> 25	> 25	> 25	–	–	–	–	–	–	–	–	–
COc1ccccc1CNCCCCCCCCCCCCN1C(=O)c2ccc3c4c(ccc(c24)C1=O)C(=O)N(CCCCCCCCCCCCNCc1ccccc1OC)C3=O	> 50	–	1.8	–	> 50	> 5	> 50	> 50	–	> 5	–	–	> 50	> 50	0.806	> 50	> 5	> 50	> 5
CC1CC/C(=C\c2ccc(Cl)cc2)c2nc(N)c(C#N)c(-c3ccc(Cl)cc3)c21 (configuration not stated)	> 100	> 100	72.4	> 100	> 100	> 100	> 100	> 100	–	> 100	–	–	–	–	–	–	–	–	–
CC(=O)CC(=O)CCC(=O)O	–	–	–	–	> 100	> 100	> 100	–	–	> 100	–	–	–	–	–	–	–	–	–
Nc1ncnc2c1ncn2Cc1cccc(CCl)c1	25.8	–	30	44.5	> 100	91.4	37.2	47.3	> 100	30.4	–	–	–	–	–	–	–	–	–
CC(C)(C)OC(=O)n1cc(C2CN(O)C(=O)C23CCC(=O)N3Cc2ccccc2)c2ccccc21 (configuration not stated)	> 100	> 100	74.8	93.5	> 100	> 100	–	> 100	> 100	> 100	–	–	–	–	–	–	–	–	–
CCOP(=O)(OCC)/C(C#N)=C/c1cccn1Cc1ccccc1	55	> 100	> 100	–	75.5	> 100	> 100	–	–	> 100	–	–	–	–	–	–	–	–	–
O=C(NNCc1ccc(Cl)cc1)Nc1cccc2ccccc12	> 100	> 100	–	84.4	> 100	–	> 100	> 100	–	> 100	–	–	–	–	–	–	–	–	–
CC1OC2OC3C(OCC(O)C3O)OC(=O)[C@]34CCC(C)(C)CC3C3=CCC5[C@@]6(C)C[C@H](O)[C@H](OC7OC(CO)C(O)C(O)C7OC7OCC(OC(=O)CC(C)(O)CC(=O)OC1C(OC1OC(CO)C(O)C(O)C1O)C2O)C(O)C7O)[C@@](C)(CO)C6CC[C@@]5(C)[C@]3(C)CC4 (some centres not stated)	19.2	28	–	25.2	21.3	13.5	17.9	17.1	30.1	12.7	–	–	–	–	–	–	–	–	–
O=C(c1ccco1)N(C(=S)OC12CC3CC(CC(C3)C1)C2)c1ccccc1	73.4	59.5	84.6	–	> 100	> 100	83.6	> 100	98	> 100	–	–	–	–	–	–	–	–	–
COc1c(C)c(C/C=C(\C)CC/C=C(\C)CCC=C(C)C)c(OC)c(OC)c1OC	> 100	> 100	–	–	> 100	> 100	> 100	> 100	> 100	> 100	–	–	–	–	–	–	–	–	–
O=C(CC1Sc2ccccc2NC1=O)Nc1ccc(Cl)cc1 (configuration not stated)	> 100	> 100	> 100	> 100	> 100	> 100	> 100	47.3	–	> 100	–	–	–	–	–	–	–	–	–
